Experimental findings from PMC9104802 (Cells, 2022) are described below.

Assay [1] has as its target T1, hTERT (telomerase reverse transcriptase) (Homo sapiens, UniProt O14746).
T1 construct: gene TERT
Put plainly: fluorescence polarization with His-hTRBD, BSA negative control; supported by TRAP inhibition of reconstituted GST-opTERT/hTERC and immunoprecipitated FLAG-hTERT telomerase (IC50 […]). It is filed as binding. A general note: Polarisation of emitted light reports the rotation of a fluorescent probe.

Assay [2] has as its system Telo24 (human telomeric oligonucleotide, telomeric G-quadruplex) (DNA, G4) TTAGGGTTAGGGTTAGGGTTAGGG
Kind of assay: microscale thermophoresis (MST). Particulars: K+ 100 mM KCl (plus potassium phosphate); 10 mM K2HPO4/KH2PO4 pH 7.0; 30 min; 1 μM DNA; SC 0.15625-320 μM; apparent. A general note: Microscale thermophoresis detects binding through changes in fluorescence in a small temperature gradient.

T1 sequence (O14746 325-550 limits assumed): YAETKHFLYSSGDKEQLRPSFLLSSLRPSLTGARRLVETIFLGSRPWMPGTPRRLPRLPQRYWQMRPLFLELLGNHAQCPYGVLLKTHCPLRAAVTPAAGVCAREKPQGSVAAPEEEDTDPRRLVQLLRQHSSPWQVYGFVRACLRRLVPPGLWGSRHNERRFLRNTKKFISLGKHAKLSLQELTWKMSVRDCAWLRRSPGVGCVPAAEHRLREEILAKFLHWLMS

Take `C[n+]1cc2c3c(ccc2c2ccc4cc5c(cc4c21)OCO5)OCO3` [SC, Sanguinarine chloride]: the EC50 (as a rule, the concentration that produces a half-maximal response) amounted to 24.8 µM in assay [1] and 120 µM in assay [2].
